Measurements from US10300058B2, “Tyrosine kinase inhibitor and uses thereof” (Xuanzhu Pharma Co., Ltd., priority 2014, dated 2019).

Key:
EGFR L858R = EGFR L858R (Homo sapiens (Human), UniProt P00533, L858R); test: Mobility Shift Assay, in vitro enzyme-inhibiting activity, EGFR L858R; assay type: biochemical; conditions: for IC50: Km ATP; for Selectivity WT/L858R: ratio of IC50
Description: (§1) 1. Preparation of Reagents
(§2) 2. Preparation of a Compound Solution
(§3) (1) To the second well of a 96-well plate, 5 μL 10 mM compound (dissolved in DMSO) was added, and 95 μL 100% DMSO was added to prepare 100 μL 0.5 mM compound.
(§4) (2) To other wells, 60 μL 100% DMSO was added. 20 μL compound from the second well was added to the third well, and 4-fold dilution was further performed to get 10 diluted concentrations.
(§5) (3) To the first well and the twelfth well of the 96-well plate, 100 μL 100% DMSO was separately added, and the two wells were used as control wells.
(§6) (4) 10 μL from each well of the 96-well plate was added to another 96-well plate, and 90 μL 1-fold kinase buffer was added.
(§7) (5) 5 μL from the 96-well plate was added to another 384-well plate, for example, transferred from A1 well of the 96-well plate to A1 and A2 wells of the 384-well plate, and transferred from A2 well of the 96-well plate to A3 and A4 wells of the 384-well plate, and so on.
(§8) To 384-well plate, 10 μL 2.5-fold enzyme solution was added, and incubated at room temperature for 10 min.
(§9) (5) Kinase reaction and stop
(§10) After incubation at 28° C. for a period of time (depending on kinase), 25 μL stop solution was added.
(§11) 4. Data on percent conversion was read by Caliper.
(§12) (1) Data on enzyme activity was obtained by Caliper program;
(§13) (2) Inhibition rate of enzyme activity was calculated from the data on enzyme activity by the following formula: Inhibition rate(%)=(maximal value−the measured value of a test compound)/(maximal value-minimal value)×100,
(§14) wherein, the maximal value represents the measured value of DMSO control; and the minimal value represents the measured value of blank control.
(§15) (3) Calculation of IC50 value by XLFit excel.

EGFR T790M = EGFR T790M (Homo sapiens (Human), UniProt P00533, T790M); test: Mobility Shift Assay, in vitro enzyme-inhibiting activity, EGFR T790M; assay type: biochemical; conditions: for IC50: Km ATP; for Selectivity (WT/T790M): ratio of IC50
Chain of EGFR T790M (P00533 25-1210 T790M): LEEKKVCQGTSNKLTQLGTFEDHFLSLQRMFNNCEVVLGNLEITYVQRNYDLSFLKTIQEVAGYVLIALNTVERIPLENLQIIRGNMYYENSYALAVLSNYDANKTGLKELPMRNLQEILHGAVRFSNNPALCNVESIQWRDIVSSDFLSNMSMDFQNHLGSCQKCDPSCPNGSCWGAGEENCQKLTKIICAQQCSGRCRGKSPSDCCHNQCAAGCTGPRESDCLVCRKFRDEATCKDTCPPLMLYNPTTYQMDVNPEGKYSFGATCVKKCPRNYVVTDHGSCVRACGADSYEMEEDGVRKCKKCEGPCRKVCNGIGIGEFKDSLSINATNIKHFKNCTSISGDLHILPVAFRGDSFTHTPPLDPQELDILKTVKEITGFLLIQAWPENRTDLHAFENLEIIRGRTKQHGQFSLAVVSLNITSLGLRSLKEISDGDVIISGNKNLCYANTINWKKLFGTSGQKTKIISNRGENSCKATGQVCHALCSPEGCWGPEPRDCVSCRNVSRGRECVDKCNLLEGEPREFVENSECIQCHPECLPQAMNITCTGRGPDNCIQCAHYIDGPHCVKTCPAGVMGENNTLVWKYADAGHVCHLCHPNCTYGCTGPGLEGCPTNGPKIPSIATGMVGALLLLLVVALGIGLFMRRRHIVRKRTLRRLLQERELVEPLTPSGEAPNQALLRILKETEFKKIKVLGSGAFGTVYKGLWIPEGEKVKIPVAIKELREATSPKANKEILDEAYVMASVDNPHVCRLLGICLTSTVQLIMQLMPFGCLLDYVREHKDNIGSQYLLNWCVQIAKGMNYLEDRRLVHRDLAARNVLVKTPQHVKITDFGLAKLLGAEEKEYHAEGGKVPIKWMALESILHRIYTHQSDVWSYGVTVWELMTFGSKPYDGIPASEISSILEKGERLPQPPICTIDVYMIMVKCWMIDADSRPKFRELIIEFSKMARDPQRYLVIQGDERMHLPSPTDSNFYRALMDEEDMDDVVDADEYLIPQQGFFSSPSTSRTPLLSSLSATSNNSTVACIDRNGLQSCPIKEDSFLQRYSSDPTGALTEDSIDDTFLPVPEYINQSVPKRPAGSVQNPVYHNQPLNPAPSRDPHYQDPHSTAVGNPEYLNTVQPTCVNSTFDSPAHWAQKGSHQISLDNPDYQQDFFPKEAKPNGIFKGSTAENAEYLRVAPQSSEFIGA
Description: as §1, §2, §3, §4, §5, §6, §7, §8, §9, §10, §11, §12, §13, §14, §15

wild-type EGFR (WT EGFR) = wild-type EGFR (WT EGFR) (Homo sapiens (Human), UniProt P00533); test: Mobility Shift Assay, in vitro enzyme-inhibiting activity, wild-type EGFR; assay type: biochemical; conditions: Km ATP
Chain of wild-type EGFR (WT EGFR) (P00533 25-1210): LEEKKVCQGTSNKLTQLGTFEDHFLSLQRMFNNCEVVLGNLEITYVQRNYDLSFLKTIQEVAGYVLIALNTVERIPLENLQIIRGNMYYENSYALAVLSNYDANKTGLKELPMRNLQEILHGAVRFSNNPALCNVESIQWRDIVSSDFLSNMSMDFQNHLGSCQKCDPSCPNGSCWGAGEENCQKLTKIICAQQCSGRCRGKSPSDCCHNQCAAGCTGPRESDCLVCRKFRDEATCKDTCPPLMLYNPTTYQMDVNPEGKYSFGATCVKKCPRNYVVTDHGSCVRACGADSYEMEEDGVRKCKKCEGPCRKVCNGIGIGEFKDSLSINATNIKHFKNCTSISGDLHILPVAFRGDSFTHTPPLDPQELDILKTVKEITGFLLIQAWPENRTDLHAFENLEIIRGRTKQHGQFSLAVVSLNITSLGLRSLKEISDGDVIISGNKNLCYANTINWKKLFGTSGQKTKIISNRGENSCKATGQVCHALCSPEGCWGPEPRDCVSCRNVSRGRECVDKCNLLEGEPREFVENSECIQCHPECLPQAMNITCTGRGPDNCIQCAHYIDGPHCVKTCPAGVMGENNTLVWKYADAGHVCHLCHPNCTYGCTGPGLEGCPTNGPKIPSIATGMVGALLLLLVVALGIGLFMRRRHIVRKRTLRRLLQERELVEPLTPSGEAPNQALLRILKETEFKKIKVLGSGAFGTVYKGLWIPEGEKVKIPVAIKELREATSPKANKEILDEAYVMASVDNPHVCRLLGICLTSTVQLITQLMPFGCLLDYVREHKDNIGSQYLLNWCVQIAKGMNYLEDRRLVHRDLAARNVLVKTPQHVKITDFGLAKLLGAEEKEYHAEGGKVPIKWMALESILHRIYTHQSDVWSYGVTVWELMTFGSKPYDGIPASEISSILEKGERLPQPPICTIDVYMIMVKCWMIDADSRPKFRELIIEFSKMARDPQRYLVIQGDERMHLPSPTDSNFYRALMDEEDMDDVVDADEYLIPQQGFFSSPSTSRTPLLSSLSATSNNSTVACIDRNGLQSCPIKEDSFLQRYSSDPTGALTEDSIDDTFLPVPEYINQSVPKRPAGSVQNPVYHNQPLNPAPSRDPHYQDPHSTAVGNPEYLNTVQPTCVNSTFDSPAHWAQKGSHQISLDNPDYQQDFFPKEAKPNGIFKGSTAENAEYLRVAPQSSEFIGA
Description: as §1, §2, §3, §4, §5, §6, §7, §8, §9, §10, §11, §12, §13, §14, §15

EGFR (d746-750) = EGFR (d746-750) (Homo sapiens (Human), UniProt P00533, DEL746-750); test: Mobility Shift Assay, in vitro enzyme-inhibiting activity, EGFR (d746-750); assay type: biochemical; conditions: for IC50: Km ATP; for Selectivity WT/d746-750: ratio of IC50
Chain of EGFR (d746-750) (P00533 other isoform, or with tags, fused parts or gaps del 1-668/del 746-750 limits assumed): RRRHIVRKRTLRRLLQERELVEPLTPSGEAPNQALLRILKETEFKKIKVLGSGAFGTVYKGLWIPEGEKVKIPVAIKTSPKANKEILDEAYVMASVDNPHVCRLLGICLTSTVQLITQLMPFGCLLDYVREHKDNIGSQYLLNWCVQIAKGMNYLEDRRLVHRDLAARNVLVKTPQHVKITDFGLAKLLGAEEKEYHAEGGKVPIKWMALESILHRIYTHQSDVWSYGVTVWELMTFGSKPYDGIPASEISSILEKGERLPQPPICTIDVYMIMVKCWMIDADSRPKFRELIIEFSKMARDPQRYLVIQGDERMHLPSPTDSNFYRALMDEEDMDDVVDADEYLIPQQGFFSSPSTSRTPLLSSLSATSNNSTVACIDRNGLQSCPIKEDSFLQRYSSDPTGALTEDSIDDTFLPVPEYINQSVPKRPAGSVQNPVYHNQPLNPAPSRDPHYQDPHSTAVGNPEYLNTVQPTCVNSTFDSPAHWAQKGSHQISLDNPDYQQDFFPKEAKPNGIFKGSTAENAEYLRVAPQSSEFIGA
Description: as §1, §2, §3, §4, §5, §6, §7, §8, §9, §10, §11, §12, §13, §14, §15

EGFR T790M-L858R = EGFR T790M-L858R (Homo sapiens (Human), UniProt P00533, L858R/T790M); test: Mobility Shift Assay, in vitro enzyme-inhibiting activity, EGFR T790M-L858R; assay type: biochemical; conditions: for IC50: Km ATP; for Selectivity WT/T790M-L858R: ratio of IC50
Description: as §1, §2, §3, §4, §5, §6, §7, §8, §9, §10, §11, §12, §13, §14, §15

[1] = test system: A431 cell (wild-type EGFR gene); test: In vitro cytologic activity, Celltiter-Glo, A431 cells; assay type: cell-based; conditions: Homo sapiens, A-431, 72 h, Table 9
Description: (§16) 1.1 Preparation of Cell Suspension
(§17) Culture medium was removed from culture bottle;
(§18) PBS was added to wash the cells; • pancreatin was added for digestion, and the cells were collected by centrifugation; • the cells were resuspended in a culture medium containing 10% fetal bovine serum, counted and adjusted to a concentration of 2×10^4/mL or 3×10^4/mL (cell viability must be greater than 90%); • the cell suspension was added to a 96-well plate, at 100 μL for each well, i.e., 2000/well for H1975 cell; 3000/well for A431 cell; and • the cells were cultured at 37° C. in 5% CO2 incubator overnight.
(§19) Dilution of a compound in DMSO (or water for injection) • (1) The compound was 5-fold diluted with DMSO from 10 mM to 2 mM, and then 4-fold diluted from 2 mM, to get 10 concentrations; • High control (HC, control without compound inhibition): 0.5% DMSO; • Low control (LC, control with compound inhibition): 1000 nM.
(§20) i. To each well, 99 μL growth medium containing 10% FBS was added, and then 1 μL diluted compound was added, the total volume of the well was […], and the final concentration of the compound was measured.
(§21) The test plate was left at room temperature, and equilibrated for 30 min. 80 μL culture medium was discarded. 60 μL CTG reagent (Celltiter-Glo kit) was added, and shaked for 2 min in a fast shaker, and was placed at room temperature for 10 min. The values were read by Envision instrument.

[2] = test system: H1975 cell (EGFR-T790M/L858R double mutation); test: In vitro cytologic activity, Celltiter-Glo, H1975 cells; assay type: cell-based, human; conditions: Table 9
Description: as §16, §17, §18, §19, §20, §21

Chain of EGFR L858R (P00533 25-1210 L858R): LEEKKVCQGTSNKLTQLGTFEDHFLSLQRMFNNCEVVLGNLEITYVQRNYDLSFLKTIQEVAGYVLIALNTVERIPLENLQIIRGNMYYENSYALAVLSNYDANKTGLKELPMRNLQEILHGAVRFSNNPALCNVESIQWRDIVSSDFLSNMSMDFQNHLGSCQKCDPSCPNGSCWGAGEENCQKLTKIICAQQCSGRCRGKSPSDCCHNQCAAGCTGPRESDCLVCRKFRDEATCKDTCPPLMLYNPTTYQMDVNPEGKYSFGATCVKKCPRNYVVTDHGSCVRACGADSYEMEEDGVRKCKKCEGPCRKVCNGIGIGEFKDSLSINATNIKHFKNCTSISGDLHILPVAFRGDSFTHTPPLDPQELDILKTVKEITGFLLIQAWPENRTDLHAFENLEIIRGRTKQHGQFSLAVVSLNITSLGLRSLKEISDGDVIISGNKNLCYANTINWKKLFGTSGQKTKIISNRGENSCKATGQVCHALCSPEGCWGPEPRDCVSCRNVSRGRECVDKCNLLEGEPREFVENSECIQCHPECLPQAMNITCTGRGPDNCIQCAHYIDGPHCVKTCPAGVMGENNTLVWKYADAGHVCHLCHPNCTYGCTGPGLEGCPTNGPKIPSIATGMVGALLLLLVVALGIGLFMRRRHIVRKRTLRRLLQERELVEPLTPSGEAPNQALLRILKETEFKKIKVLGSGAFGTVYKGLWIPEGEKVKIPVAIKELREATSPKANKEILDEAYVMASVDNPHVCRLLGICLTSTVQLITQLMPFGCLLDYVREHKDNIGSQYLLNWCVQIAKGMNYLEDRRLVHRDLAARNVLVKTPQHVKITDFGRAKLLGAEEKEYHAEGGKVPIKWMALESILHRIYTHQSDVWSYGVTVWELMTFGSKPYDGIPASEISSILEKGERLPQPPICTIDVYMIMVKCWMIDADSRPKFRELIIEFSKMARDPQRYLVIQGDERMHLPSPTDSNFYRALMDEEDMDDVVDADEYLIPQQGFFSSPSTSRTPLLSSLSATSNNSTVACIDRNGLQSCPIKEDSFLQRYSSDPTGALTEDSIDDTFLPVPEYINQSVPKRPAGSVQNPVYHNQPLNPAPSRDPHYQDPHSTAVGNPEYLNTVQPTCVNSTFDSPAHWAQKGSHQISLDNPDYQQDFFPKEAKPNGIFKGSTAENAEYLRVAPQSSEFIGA

| Structure (SMILES) | IC50 (EGFR L858R; Table 7) | Selectivity WT/L858R (EGFR L858R; Table 7) | IC50 (EGFR T790M; Table 7) | Selectivity (WT/T790M) (EGFR T790M; Table 7) | IC50 (wild-type EGFR (WT EGFR); Table 7) | IC50 (EGFR (d746-750); Table 7) | Selectivity WT/d746-750 (EGFR (d746-750); Table 7) | IC50 (EGFR T790M-L858R; Table 7) | Selectivity WT/T790M-L858R (EGFR T790M-L858R; Table 7) | further results |
| --- | --- | --- | --- | --- | --- | --- | --- | --- | --- | --- |
| C=CC(=O)Nc1cccc(Nc2nc(Nc3ccc(C4=CCN(C(C)=O)CC4)cc3OC)ncc2C(F)(F)F)c1 [Compound 3, N-(3-((2-((4-(1-acetyl-1,2,3,6-tetrahydropyridin-4-yl)-2-methoxyphenyl)amino)-5-(trifluoromethyl)pyrimidin-4-yl)amino)phenyl)acrylamide] | – | – | – | – | – | – | – | – | – | IC50 (EGFR L858R; Table 5): 0.154 µM; Selectivity WT/L858R (EGFR L858R; Table 5): 4.8; IC50 (EGFR T790M; Table 1): 0.0047 µM; Selectivity (WT/T790M) (EGFR T790M; Table 1): 148.7; IC50 (wild-type EGFR (WT EGFR); Table 1): 0.699 µM; IC50 (wild-type EGFR (WT EGFR); Table 5): 0.733 µM; IC50 (EGFR (d746-750); Table 5): 0.0514 µM; Selectivity WT/d746-750 (EGFR (d746-750); Table 5): 14.2; IC50 (EGFR T790M-L858R; Table 5): 0.006 µM; Selectivity WT/T790M-L858R (EGFR T790M-L858R; Table 5): 122.9 |
| C=CC(=O)Nc1cccc(Nc2nc(Nc3ccc(C4CCN(C(C)=O)CC4)cc3OC)ncc2C(F)(F)F)n1 [Compound 4, N-(6-((2-((4-(1-acetylpiperidin-4-yl)-2-methoxyphenyl)amino)-5-(trifluoromethyl)pyrimidin-4-yl)amino)pyridin-2-yl)acrylamide] | 0.082 µM | 5.2 | 0.0072 µM | 58.8 | 0.423 µM | 0.04 µM | 10.6 | 0.0052 µM | 81.3 | IC50 (EGFR T790M; Table 3): 0.0072 µM; Selectivity (WT/T790M) (EGFR T790M; Table 3): 58.8; IC50 (wild-type EGFR (WT EGFR); Table 3): 0.423 µM |
| C=CC(=O)Nc1cccc(Nc2nc(Nc3ccc(N4CC5CCC(C4)N5C(C)=O)cc3OC)ncc2C(F)(F)F)c1 [Compound 7, N-(3-((2-((4-(8-acetyl-3,8-diazabicyclo[3.2.1]octan-3-yl)-2-methoxyphenyl)amino)-5-(trifluoromethyl)pyrimidin-4-yl)amino)phenyl)acrylamide] | – | – | – | – | – | – | – | – | – | IC50 (EGFR T790M; Table 4, unit inferred): 0.0062 µM; Selectivity (WT/T790M) (EGFR T790M; Table 4): 53.5; IC50 (wild-type EGFR (WT EGFR); Table 4, unit inferred): 0.332 µM |
| C=CC(=O)Nc1cccc(Nc2nc(Nc3ccc(N4C[C@H]5CN(C(C)=O)C[C@H]5C4)cc3OC)ncc2C(F)(F)F)c1 [Compound 9-1, N-(3-((2-((4-((cis)-5-acetylhexahydropyrrolo[3,4-c]pyrrol-2(1H)-yl)-2-methoxyphenyl)amino)-5-(trifluoromethyl)pyrimidin-4-yl)amino)phenyl)acrylamide] | 0.119 µM | 4.7 | 0.009 µM | 62.2 | 0.56 µM | 0.0927 µM | 6.0 | 0.0126 µM | 44.5 | – |
| C=CC(=O)Nc1cccc(Nc2nc(Nc3cc4c(cc3OC)CN(C(C)=O)CC4)ncc2C(F)(F)F)c1 [Compound 11, N-(3-((2-((2-acetyl-7-methoxy-1,2,3,4-tetrahydroisoquinolin-6-yl)amino)-5-(trifluoromethyl)pyrimidin-4-yl)amino)phenyl)acrylamide] | – | – | – | – | – | – | – | – | – | IC50 [1]: 1.77 µM; IC50 ([2]; Homo sapiens, NCI-H1975, 72 h, 72 h, Celltiter-Glo): 0.179 µM; Selectivity (A431/H1975) ([2]; ratio of IC50): 9.9; IC50 (EGFR T790M; Table 2): 0.013 µM; Selectivity (WT/T790M) (EGFR T790M; Table 2): 49.2; IC50 (wild-type EGFR (WT EGFR); Table 2): 0.64 µM |
| C=CC(=O)Nc1cccc(Nc2nc(Nc3ccc4c(c3OC)CN(C(C)=O)CC4)ncc2C(F)(F)F)c1 [Compound 17, N-(3-((2-((2-acetyl-8-methoxy-1,2,3,4-tetrahydroisoquinoline-7-yl)amino)-5-(trifluoromethyl)pyrimidin-4-yl)amino)phenyl)acrylamide] | – | – | – | – | – | – | – | – | – | IC50 (EGFR T790M; Table 4, unit inferred): 0.016 µM; Selectivity (WT/T790M) (EGFR T790M; Table 4): 85.6; IC50 (wild-type EGFR (WT EGFR); Table 4, unit inferred): 1.37 µM |
| C=CC(=O)Nc1cccc(Nc2nc(Nc3ccc(C4CCNC(=O)C4)cc3OC)ncc2C(F)(F)F)c1 (stereo not shown) [Compound 22, N-(3-((2-((2-methoxy-4-(2-oxopiperidin-4-yl)phenyl)amino)-5-(trifluoromethyl)pyrimidin-4-yl)amino)phenyl)acrylamide] | 0.0282 µM | 6.4 | 0.0027 µM | 67.2 | 0.181 µM | 0.0283 µM | 6.4 | 0.00406 µM | 44.6 | – |
